Laboratory results as given in BindingDB's records for doi:10.1016/j.bmc.2014.04.036 (Amri, 2014).

These compounds were tested against T1, Sodium/glucose cotransporter 1 (Homo sapiens, UniProt P13866) (assay: Inhibition of human SGLT1 expressed in CHOK1 cells assessed as inhibition of [14C]-AMG uptake after 3 hrs by microbeta scintillation counting analysis).
T1 sequence (P13866 whole entry): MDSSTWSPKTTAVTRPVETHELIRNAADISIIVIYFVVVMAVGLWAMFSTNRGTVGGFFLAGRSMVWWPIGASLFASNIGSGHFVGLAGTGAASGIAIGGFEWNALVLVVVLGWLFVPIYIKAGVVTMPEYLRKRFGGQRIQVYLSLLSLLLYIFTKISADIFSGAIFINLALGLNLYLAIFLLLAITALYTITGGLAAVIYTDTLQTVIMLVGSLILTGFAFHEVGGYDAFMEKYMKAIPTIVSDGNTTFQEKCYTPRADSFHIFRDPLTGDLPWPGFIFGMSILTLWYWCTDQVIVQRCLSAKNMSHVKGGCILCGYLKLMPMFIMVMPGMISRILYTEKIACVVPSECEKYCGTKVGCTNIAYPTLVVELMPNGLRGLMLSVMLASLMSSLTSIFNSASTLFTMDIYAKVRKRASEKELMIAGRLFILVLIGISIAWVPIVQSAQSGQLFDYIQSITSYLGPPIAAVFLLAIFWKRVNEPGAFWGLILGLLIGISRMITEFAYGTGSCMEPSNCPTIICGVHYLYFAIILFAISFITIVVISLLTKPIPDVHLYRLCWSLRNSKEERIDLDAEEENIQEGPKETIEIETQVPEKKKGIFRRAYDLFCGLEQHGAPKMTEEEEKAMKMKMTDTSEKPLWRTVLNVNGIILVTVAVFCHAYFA

IC50, > 90 µM:
O=c1n(Cc2cc([C@@H]3O[C@H](CO)[C@@H](O)[C@H](O)[C@H]3O)ccc2Cl)nc2ccc(C(F)(F)F)cn12 [US8575114, I-5]
O=c1n(Cc2cc([C@@H]3O[C@H](CO)[C@@H](O)[C@H](O)[C@H]3O)ccc2Cl)nc2ccc(CO)cn12 [US8575114, I-6]
Cc1cc2nn(Cc3cc([C@@H]4O[C@H](CO)[C@@H](O)[C@H](O)[C@H]4O)ccc3Cl)c(=O)n2cc1Cl [US8575114, I-12]
